Article PMC6792352, “Limited Chemical Structural Diversity Found to Modulate Thyroid Hormone Receptor in the Tox21 Chemical Library” (Environmental Health Perspectives, 2019)
Counter-ions that a name gives are not always drawn.

Test: in vitro
Details: rat, gh3-tre-luc cells, AC50 (uM) modified / 1000
`Nc1ccc(-c2ccc(N)c(N)c2)cc1N` [3,3',4,4'-Tetraaminobiphenyl tetrahydrochloride] gave a CC50 at 24 h of 64.7 µM.
For `CCN(CC)c1ccc2c(C)cc(=O)oc2c1` [7-Diethylamino-4-methylcoumarin], the CC50 at 24 h was > 90 µM.
With `O=C(O)C(c1ccc(Cl)cc1)c1ccc(Cl)cc1` [p,p'-DDA] the CC50 at 24 h was > 90 µM.
For `CCOc1ccc(NC(C)=O)cc1N` [3-Amino-4-ethoxyacetanilide], the CC50 at 24 h was > 90 µM.
`CN(C)CC/C=C1\c2ccccc2CSc2ccccc21` [Dothiepin hydrochloride] showed a CC50 at 24 h of 6.1 µM.
`CN1CCc2cc(Cl)c(O)cc2[C@H]2c3ccccc3CC[C@@H]21` [ecopipam] showed a CC50 at 24 h of 17.4 µM.
For `BrC(Br)C(Br)Br` [1,1,2,2-Tetrabromoethane], the CC50 at 24 h was > 90 µM.
For `CN1CCN(C2=Nc3ccccc3Cc3ccccc32)CC1` [Perlapine], the CC50 at 24 h was 25.9 µM.
`CC1=NN(c2cc(S(=O)(=O)O)ccc2Cl)C(=O)C1N=Nc1ccccc1` (centres unmarked) [C.I. Acid Yellow 34, monosodium salt] gave a CC50 at 24 h of 92.1 µM.
For `CC(C)C(=O)OCCc1ccccc1` [2-Phenylethyl 2-methylpropanoate], the CC50 at 24 h was > 90 µM.
For `CN/C(=C\[N+](=O)[O-])NCCSCc1ccc(CN(C)C)o1` [Ranitidine], the CC50 at 24 h was > 90 µM.
In the case of `OC1OCCOC1O` (centres unmarked) [1,4-Dioxane-2,3-diol], the CC50 at 24 h is reported as > 90 µM.
With `NC(=S)c1c(Cl)cccc1Cl` [Chlorthiamid] the CC50 at 24 h was > 90 µM.
With `C[C@@H](N)C(=O)O` [D-Alanine] the CC50 at 24 h was > 50 µM.
In the case of `Clc1cc(Cl)c(Cl)nc1Cl` [2,3,5,6-Tetrachloropyridine], the CC50 at 24 h is reported as > 90 µM.
For `CCCCCC/C=C/C=O` [(E)-2-Nonenal], the CC50 at 24 h was > 90 µM.
For `O=C1NC(=O)C(c2ccccc2)(c2ccccc2)N1` [5,5-Diphenylhydantoin], the CC50 at 24 h was > 90 µM.
For `CO[C@H]1[C@@H](O)[C@H](N)[C@@H](O[C@H]2O[C@H]([C@H](C)N)CC[C@H]2N)[C@H](O)[C@@H]1N(C)C(=O)CN` [Astromicin], the CC50 at 24 h was > 50 µM.
In the case of `Cc1ccc2nc(N)[nH]c(=O)c2c1Sc1ccncc1` [Nolatrexed dihydrochloride], the CC50 at 24 h is reported as > 50 µM.
With `CCCCC(CC)C(=O)OCCOCCOCCOCCOC(=O)C(CC)CCCC` (centres unmarked) [Tetraethylene glycol di(2-ethylhexanoate)] the CC50 at 24 h was > 90 µM.
With `OCCO` [Ethylene glycol] the CC50 at 24 h was > 100 µM.
In the case of `N[C@@H](Cc1ccc(O)cc1)C(=O)O` [L-Tyrosine], the CC50 at 24 h is reported as > 50 µM.
Compound `CC1=C2C[C@H]3[C@@H](CC=C4C[C@@H](O)CC[C@@]43C)[C@@H]2CC[C@]12O[C@@H]1C[C@H](C)CN[C@H]1[C@H]2C` [Cyclopamine] has a CC50 at 24 h of 5.73 µM.
With `COC(C)(C)CCCC(C)CC=O` (centres unmarked) [7-Methoxy-3,7-dimethyloctanal] the CC50 at 24 h was > 90 µM.
With `CC(C)(C#N)Nc1nc(Cl)nc(NC2CC2)n1` [Procyazine] the CC50 at 24 h was > 90 µM.
For `CC(=O)Oc1cc(C(F)(F)F)ccc1C(=O)O` [Triflusal], the CC50 at 24 h was > 20 µM.
For `C=CCCCCCCCC` [1-Decene], the CC50 at 24 h was > 90 µM.
For `CCCCCCC(C)OC(=O)CCCCC(=O)OC(C)CCCCCC` (centres unmarked) [Diisooctyl adipate], the CC50 at 24 h was > 90 µM.
Work on `N#CSc1ccc(N)c([N+](=O)[O-])c1` [2-Nitro-4-thiocyanoaniline] yielded a CC50 at 24 h of 51.1 µM.
For `COC(=O)N/N=C/c1c[n+]([O-])c2ccccc2[n+]1[O-]` [Carbadox], the CC50 at 24 h was > 50 µM.
In the case of `Cc1c[nH]c2ccccc12` [3-Methylindole], the CC50 at 24 h is reported as > 50 µM.
For `O=S(=O)(O)c1ccc2ccccc2c1` [Sodium 2-naphthalenesulfonate], the CC50 at 24 h was > 90 µM.
For `Cc1cccc(C(=O)O)c1` [3-Methylbenzoic acid], the CC50 at 24 h was > 90 µM.
In the case of `COc1c(Cl)c(Cl)c(Cl)c(Cl)c1Cl` [Pentachloroanisole], the CC50 at 24 h is reported as > 90 µM.
For `CCOc1ccc(NC(=O)CC(C)O)cc1` (centres unmarked) [3-Hydroxy-4-butyrophenetidide], the CC50 at 24 h was > 90 µM.
With `Nc1ccc(S(=O)(=O)c2ccc(N)cc2)cc1` [Dapsone] the CC50 at 24 h was > 50 µM.
In the case of `FC(F)OC(Cl)C(F)(F)F` (centres unmarked) [Isoflurane], the CC50 at 24 h is reported as > 90 µM.
In the case of `CN[C@]1(c2ccccc2Cl)CCCCC1=O` [(S)-Ketamine], the CC50 at 24 h is reported as > 50 µM.
In the case of `Oc1cccc(Nc2ccccc2)c1` [3-Hydroxy-N-phenylaniline], the CC50 at 24 h is reported as > 100 µM.
With `Cc1c(NC(=O)c2cccnc2)c(=O)n(-c2ccccc2)n1C` [Nifenazone] the CC50 at 24 h was > 20 µM.
With `O=C(O)/C=C/c1ccc(/C=C/C(=O)O)cc1` [3,3'-(1,4-Phenylene)bis-2-propenoic acid] the CC50 at 24 h was > 50 µM.
In the case of `CC(=O)c1ccc2c(c1)Cc1ccccc1-2` [2-Acetylfluorene], the CC50 at 24 h is reported as > 90 µM.
With `CCOC(=O)[C@H](CS)NCCN[C@@H](CS)C(=O)OCC` [Bicisate dihydrochloride] the CC50 at 24 h was > 50 µM.
In the case of `C1C2OC2C2C1C1CC2C2OC12` (centres unmarked) [Dicyclopentadiene dioxide], the CC50 at 24 h is reported as > 90 µM.
In the case of `C1CCNCC1` [Piperidine], the CC50 at 24 h is reported as > 90 µM.
With `CCCCCCCC(=O)N(C)C` [N,N-Dimethyloctanamide] the CC50 at 24 h was > 90 µM.
With `NC1CCC(CC2CCC(N)CC2)CC1` (centres unmarked) [4,4'-Diaminodicyclohexylmethane] the CC50 at 24 h was > 90 µM.
For `CC(=O)c1ccc2ccccc2c1` [2'-Acetonaphthone], the CC50 at 24 h was > 90 µM.
In the case of `CC(=O)C1(C)CC2=C(CCCC2(C)C)CC1C` (centres unmarked) [Isocyclemone E], the CC50 at 24 h is reported as > 90 µM.
With `COc1cc2ncnc(Nc3ccc(F)c(Cl)c3)c2cc1OCCCN1CCOCC1` [Gefitinib] the CC50 at 24 h was 8.92 µM.
With `OCCSc1ccccc1` [2-Phenylmercaptoethanol] the CC50 at 24 h was > 90 µM.
In the case of `CCCCCCCCCCCc1ccccc1` [1-Phenylundecane], the CC50 at 24 h is reported as > 90 µM.
For `CCOC(=O)C(C#N)=C(c1ccccc1)c1ccccc1` [Ethyl 2-cyano-3,3-diphenylacrylate], the CC50 at 24 h was > 90 µM.
In the case of `C[C@]12CCC(=O)C=C1C=C[C@@H]1[C@@H]2CC[C@@]2(C)[C@H]1CC[C@@]21CCC(=O)O1` [Canrenone], the CC50 at 24 h is reported as > 50 µM.
`CN(C)C(=O)C(CCN1CCC(O)(c2ccc(Cl)cc2)CC1)(c1ccccc1)c1ccccc1` [Loperamide] gave a CC50 at 24 h of 6.34 µM.
With `CN(C)CCN(C)CCO` [2-{[2-(Dimethylamino)ethyl](methyl)amino}ethanol] the CC50 at 24 h was > 90 µM.
For `CC(C)(O)c1ccc(CNC(=O)c2cccnc2Oc2ccc(F)cc2)cc1` [CP-457677], the CC50 at 24 h was > 90 µM.
For `C=C(C)C1CCC(C)(O)CC1` (stereo not drawn) [beta-Terpineol], the CC50 at 24 h was > 90 µM.

Same assay, conditions: rat, gh3-tre-luc cells, AC50 (uM) modified / 1000, Tox21_110001=Tox21_110843; viability, 1 nM T3 present, 24 h
For `COP(=O)(OC)C(O)C(Cl)(Cl)Cl` (centres unmarked) [Trichlorfon], the CC50 at 24 h was > 50 µM.

Same assay, conditions: rat, gh3-tre-luc cells, AC50 (uM) modified / 1000, Tox21_110001=Tox21_112022; viability, 1 nM T3 present, 24 h
For `C[C@@H](CO)NC(=O)[C@@H]1C=C2c3cccc4[nH]cc(c34)C[C@H]2N(C)C1` [Ergonovine], the CC50 at 24 h was > 50 µM.

Same assay, conditions: rat, gh3-tre-luc cells, AC50 (uM) modified / 1000, Tox21_110001=Tox21_112834; viability, 1 nM T3 present, 24 h
In the case of `C[C@@H]1[C@@H]2Cc3ccc(O)cc3[C@@]1(C)CCN2CCc1ccccc1` [(+)-Phenazocine hydrobromide], the CC50 at 24 h is reported as 67.4 µM.

Same assay, conditions: rat, gh3-tre-luc cells, AC50 (uM) modified / 1000, Tox21_110001=Tox21_200234; viability, 1 nM T3 present, 24 h
With `O=C=NC1CCCCC1` [Isocyanatocyclohexane] the CC50 at 24 h was > 90 µM.

Same assay, conditions: rat, gh3-tre-luc cells, AC50 (uM) modified / 1000, Tox21_110001=Tox21_201305; viability, 1 nM T3 present, 24 h
In the case of `O=C/C(Cl)=C(/Cl)C(=O)O` [Mucochloric acid], the CC50 at 24 h is reported as 74 µM.

Same assay, conditions: rat, gh3-tre-luc cells, AC50 (uM) modified / 1000, Tox21_110001=Tox21_201430; viability, 1 nM T3 present, 24 h
For `C=CC(=O)OCCO` [2-Hydroxyethyl acrylate], the CC50 at 24 h was > 90 µM.

Same assay, conditions: rat, gh3-tre-luc cells, AC50 (uM) modified / 1000, Tox21_110001=Tox21_201607; viability, 1 nM T3 present, 24 h
In the case of `COP(=O)(OC)C(O)C(Cl)(Cl)Cl` (centres unmarked) [Trichlorfon], the CC50 at 24 h is reported as > 90 µM.

Same assay, conditions: rat, gh3-tre-luc cells, AC50 (uM) modified / 1000, Tox21_110001=Tox21_201756; viability, 1 nM T3 present, 24 h
In the case of `CCOP(=S)(OCC)OP(=S)(OCC)OCC` [Sulfotepp], the CC50 at 24 h is reported as > 90 µM.

Same assay, conditions: rat, gh3-tre-luc cells, AC50 (uM) modified / 1000, Tox21_110001=Tox21_202980; viability, 1 nM T3 present, 24 h
In the case of `CC(C)(C)c1ccccc1OP(=O)(Oc1ccccc1)Oc1ccccc1` [tert-Butylphenyl diphenyl phosphate], the CC50 at 24 h is reported as > 90 µM.

Same assay, conditions: rat, gh3-tre-luc cells, AC50 (uM) modified / 1000, Tox21_110001=Tox21_302059; viability, 1 nM T3 present, 24 h
With `BrCCCCCCBr` [1,6-Dibromohexane] the CC50 at 24 h was > 90 µM.

Same assay, conditions: rat, gh3-tre-luc cells, AC50 (uM) modified / 1000, Tox21_110001=Tox21_302106; viability, 1 nM T3 present, 24 h
In the case of `C#CC1(O)CCCCC1` [1-Ethynylcyclohexanol], the CC50 at 24 h is reported as > 90 µM.

Same assay, conditions: rat, gh3-tre-luc cells, AC50 (uM) modified / 1000, Tox21_110001=Tox21_302297; viability, 1 nM T3 present, 24 h
For `COc1ccccc1OC` [1,2-Dimethoxybenzene], the CC50 at 24 h was > 90 µM.

Same assay, conditions: rat, gh3-tre-luc cells, AC50 (uM) modified / 1000, Tox21_110001=Tox21_302857; viability, 1 nM T3 present, 24 h
`O=C/C(Cl)=C(/Cl)C(=O)O` [Mucochloric acid] gave a CC50 at 24 h of 63.6 µM.
